Patent US20230255939A1, “Antimicrobial Agent for Non-Human Animal” (ISHIHARA SANGYO KAISHA, LTD, priority 2020, published 2023)
In brackets after ≈: the same amount, converted by molar mass.

What was measured:
[1] = system: Microsporum canis (NBRC7863); test: Antimicrobial activity test, minimum inhibitory concentration (Test Example 5); format: cell-based; settings: Sabouraud media, 25° C. for 120 hours
Description: Test Example 5: Antimicrobial Activity Test Test Compound: Compound No. 6 Test Microbial Strain: Microsporum Canis (NBRC7863) The strain was cultured in a Sabouraud medium and then suspended in PBS containing Tween80 (1% (V/V)), the resulting suspension was filtered through a cell strainer (φ40 µm), spores were recovered from the filtrate by centrifugation (3500 rpm, 5 minutes) and washed twice with physiological saline, and then a spore suspension was prepared (1 × 10^6 spores/mL). 50 µL of the spore suspension was inoculated into Sabouraud media to which compound No. 6 dissolved in DMSO was added to have various concentrations. After culturing at 25° C. for 120 hours, the presence or absence of microbial growth was investigated, and the minimum inhibitory concentration was determined.

[2] = system: Arthroderma vanbreuseghemii (TIMM2789); test: Antifungal activity test, minimum inhibitory concentration (Test Example 9); format: cell-based; settings: Trichophyton mentagrophytes, Sabouraud media, 28° C. for 72 hours, read-out: Minimum inhibitory concentration (MIC100)
Description: Test Example 9: Antifungal Activity Test Test Compound: Compound No. 1 Test Microbial Strain: Arthroderma Vanbreuseghemii (TIMM2789) The microbial strain was cultured in a Sabouraud medium containing 500 µg/mL of cycloheximide and 50 µg/mL of chloramphenicol at 28° C. for 8 days, then spores were collected in physiological saline containing Tween80 (0.05% (v/v)), this was filtered through a cell strainer (φ40 µm), the spores were recovered from the filtrate by centrifugation (3500 rpm, 5 minutes) and washed twice with physiological saline, and then a spore suspension was prepared (1 × 10^7 spores/mL). 10 µL of the spore suspension was inoculated into Sabouraud media to which compound No. 1 dissolved in DMSO was added to have various concentrations.

SMILES	MIC [1] [µg/mL]	MIC [2] [µg/mL]
Cc1ccc(-c2nc(C#N)[nH]c2Cl)cc1Cl [Compound No. 6, 5-chloro-4-(3-chloro-4-methylphenyl)-1H-imidazole-2-carbonitrile]	125 (≈ 496 µM)	–
Cc1ccc(-c2nc(C#N)[nH]c2Cl)cc1 [Compound No. 1, 5-Chloro-4-(4-methylphenyl)-1H-imidazole-2-carbonitrile]	–	10 (≈ 45.9 µM)
